Test results as given in BigSolDB 2.1.

O=C(O)c1cccnc1
Details	solubility (mole fraction)
in DMSO, 293.56 K	0.0597
in DMSO, 303.38 K	0.074
in DMSO, 313.07 K	0.0911
in DMSO, 322.84 K	0.109
in DMSO, 332.36 K	0.131
in acetone, 285.46 K	0.000733
in acetone, 292.26 K	0.00114
in acetone, 296.8 K	0.00137
in acetone, 302.14 K	0.00161
in acetone, 307.1 K	0.00231
in acetone, 317.11 K	0.00318
in acetonitrile, 283.3 K	7.12e-05
in acetonitrile, 288.51 K	0.00012
in acetonitrile, 293.01 K	0.00017
in acetonitrile, 297.58 K	0.000185
in acetonitrile, 302.63 K	0.000268
in acetonitrile, 306.91 K	0.000354
in acetonitrile, 312.49 K	0.000475
in acetonitrile, 316.21 K	0.000547
in acetonitrile, 322.45 K	0.000715
in acetonitrile, 332.32 K	0.00107
in diethyl ether, 283.45 K	0.000322
in diethyl ether, 285.74 K	0.000379
in diethyl ether, 290.57 K	0.000539
in diethyl ether, 294.02 K	0.000618
in diethyl ether, 298.66 K	0.000813
in ethanol, 283.38 K	0.00224
in ethanol, 293.46 K	0.00309
in ethanol, 303.15 K	0.00423
in ethanol, 312.83 K	0.00605
in ethanol, 322.64 K	0.00843
in ethanol, 332.43 K	0.0115
in water, 283.59 K	0.00172
in water, 293.41 K	0.00218
in water, 303.03 K	0.00281
in water, 312.49 K	0.00475
in water, 312.97 K	0.00365
in water, 316.21 K	0.00547
in water, 322.45 K	0.00715
in water, 322.83 K	0.00465
in water, 332.01 K	0.00586
in water, 332.32 K	0.0107
